Structures can show the parent of a compound that is named as a salt.
Experiments:
[1] = Pharmacokinetics in cannulated rats; format: in vivo; conditions: 5 mg/kg (SN-38 equivalent mass) fast IV bolus, SN-38 in plasma, IT-141 of Example 40
[2] = cited from earlier work

Row | AUC [1] [hours*μg SN-38/mL] | Compound | solubility in aqueous solutions [2]
1 | 0.26 | CCc1c2c(nc3ccc(OC(=O)N4CCC(N5CCCCC5)CC4)cc13)-c1cc3c(c(=O)n1C2)COC(=O)[C@]3(O)CC [CPT-11, irinotecan hydrochloride] | –
2 | – | CCc1c2c(nc3ccc(O)cc13)-c1cc3c(c(=O)n1C2)COC(=O)[C@]3(O)CC [SN-38, 7-ethyl-10-hydroxycamptothecin] | exceedingly insoluble
